Blank lines part the entries; values can stand above or below the compound they belong to.
How the values were obtained:
[1] = reported in U.S. Pat. No. 4,870,086; cited from earlier work
[2] = Hygroscopicity and stability of ropivacaine base and its salts; format: physicochemical
[3] = optically pure form compared to the racemic mixture of bupivacaine; cited from earlier work
[4] = Content of ropivacaine base dissolved in the filtered solution, by HPLC against a control solution; format: physicochemical; conditions: equimolar or less concentrated hydrochloric acid, even at about 60° C.
Method: Each resulting solution was warmed to about 50° C. and then cooled to room temperature with stirring for about 30 min., after which was added a suitable quantity of sodium chloride, and the total volume of each was made up to 25 mL. Osmolality of the filtered solution was determined using conventional freezing point osmometer. The pH of these solutions were in the range 3.2 to 3.5. The content of ropivacaine base dissolved in the solution was determined by HPLC against a control solution prepared by dissolving the same base in excess of hydrochloric acid.
Each resulting solution was warmed to about 50° C. with stirring for about 30 min., then cooled to room temperature, after which was added a suitable quantity of sodium chloride. The pH was then adjusted to 5.0 using sodium hydroxide solution, and then the volume was made up to 25 mL. The osmolality of the filtered solution was determined using conventional freezing point osmometer. The content of ropivacaine base dissolved in the solution was determined by HPLC against a control solution prepared by dissolving the same base in excess of hydrochloric acid.

[5] = racemate compared with either D or L isomer alone, U.S. Pat. No. 4,695,576; cited from earlier work

SMILES: CCCN1CCCC[C@H]1C(=O)Nc1c(C)cccc1C.Cl [(L) N-n-propylpipecolic acid-2,6-xylidide hydrochloride]
- hygroscopicity / stability [1]: hygroscopic and thus not stable

- hygroscopicity [2]: not hygroscopic
- stability compared with its hydrochloride or hydrochloride monohydrate salts [2]: much more stable
SMILES: CCCN1CCCC[C@H]1C(=O)Nc1c(C)cccc1C [ropivacaine base, (L) N-n-propylpipecolic acid-2,6-xylidide]
- cardio-toxic potential [3]: reduced cardio-toxic potential
- dissolution in aqueous media [4]: did not yield a completely homogeneous solution

SMILES: CCCCN1CCCCC1C(=O)Nc1c(C)cccc1C (racemic) [bupivacaine, racemic N-n-butylpipecolic acid-2,6-xylidide]
- analgesic effects [5]: better analgesic effects
